Assay [1] addresses T1, LMP7 (Homo sapiens, UniProt P28062).
T1 construct: using MOLT-4 cell lysate as the enzyme source of LMP7; endogenous in cells; host or cells: MOLT-4 (human acute lymphoblastic leukemia cells)
The assay can be described thus: Cytological inhibitory activity on LMP7 in MOLT-4 cells. It counts as cell-based. The note with it: incubation for 2 hours with compound, read-out: Cytological activity data LMP7 Activity (MOLT-4Cell). The procedure:
MOLT-4 are human acute lymphoblastic leukemia cells and have been identified as cells with high expression of LMP7. In this experiment, the compounds were pre-incubated with MOLT-4, and Ac-ANW-AMC (BonstonBiochem, Cat #S-320) was used as the substrate of LMP7 to establish the detection method for the enzymatic activity of LMP7 in cells and detect the compound inhibitory activity (half inhibitory concentration, IC50).
Cells were plated in a 24-well plate (Corning) at a concentration of 1.5×10^5/ml per well. The next day compounds were prepared and diluted in a 5-fold gradient from 2 mM in 100% DMSO for a total of 8 concentrations. 2 μl for each concentration of the compound was added to a 1-ml cell culture medium, supplemented with 1 ml of RPMI-1640 only (final FBS concentration 5%, v/v). The compounds were mixed with the cells. After incubation for 2 hours in the incubator, the cells were centrifuged at 2000 rpm for 8 minutes to discard the supernatant. The cells were washed once with 2 ml PBS (Solarbio), and centrifuged again to discard the supernatant. The cells were resuspended in 100 μl of lysis buffer (20 mM Tris, pH 8.0, 5 mM EDTA, plus Protease inhibitor (1: 100) and Phosphatase Inhibitor (1:100) when used) and left in a 4° C. refrigerator for 45 minutes.
After 2 min. of centrifuge at 2000 rpm, the lysate was transferred from the 24-well plate to a 96-well plate, and centrifuged at 2000 rpm, 4° C., for 15 min. The supernatant was the lysate. Protein quantification was performed using the BCA method (Thermo, #23225). A 2* lysate was prepared with the reaction buffer (20 mM Tris, pH 8.0, 0.5 mM EDTA) at a final concentration of 20 ng/μl. 2* Ac-ANW-AMC was prepared with the reaction buffer at a final concentration of 100 μM. 10 µl of 2* lysate was added to a 384-well plate (OptiPlate-384, purchased from PerkinElmer), and added with 10 W of 2* Ac-ANW-AMC. The reaction was started by centrifugation at 23° C. in the dark for 1 hour. After completion of the reaction, the signal value (excitation wavelength 345 nm/emission wavelength 445 nm) was read on the CLARIO starPlus (purchased from BMG LRBTECH). Enzyme activity was determined at 8 concentrations for each compound, and data were processed using the GraphPad Prism software to calculate the half inhibitory concentration of the compound on LMP7 hydrolase in MOLT-4 cells, i.e. the IC50 value.

The target of assay [2] is T1, LMP7. Nature of the assay: Enzymatic inhibitory activity on LMP7 (MOLT-4 cell lysate, Ac-ANW-AMC substrate). It counts as biochemical. The note with it: 1 hour pre-incubation. The text has this:
LMP7 is a catalytic subunit of immunoproteasomes. In this experiment, an enzymatic detection platform was established using its hydrolytic enzyme activity and used for compound activity detection. Using Ac-ANW-AMC (Bonston Biochem, Cat #S-320) as a substrate for LMP7, the amount of fluorescent group AMC (7-amino-4-methylcoumarin) released after hydrolysis can reflect the enzymatic activity. MOLT-4 cells are human acute lymphoblastic leukemia cells and have been identified as cells with high expression of LMP7. We established an enzymatic detection method for compound inhibition on LMP7 using MOLT-4 cell lysate as the enzyme source of LMP7 and detected the compound inhibitory activity (half inhibitory concentration, IC50).
(§1) MOLT-4 cells were cultured in a 75 cm^2 cell culture flask (Corning) (37° C., 95% air, and 5% CO2) with RPMI-1640 (Biological Industries) medium containing 10% fetal bovine serum (Biological Industries) and 1% Pen Strep (Gibco) and passaged 2-3 times one week. 1×10^7 MOLT-4 cells were collected, resuspended in 1 ml of PBS (Solarbio), and centrifuged at 3000 rpm for 5 minutes. The supernatant was aspirated off. The cells were resuspended in 500 μl of lysis buffer (20 mM Tris, pH 8.0, 5 mM EDTA, plus Protease inhibitor (1:1000) and Phosphatase Inhibitor (1:100) when used) and left on ice for 30 minutes. The cells were broken by supersonic technique, 0.5 S on, 0.5 S off, for 2.5 S. The centrifuge was performed at 12000 rpm, 4° C. for 10 minutes. The supernatant was the cell lysate and protein quantification was performed by using the BCA method (Thermo, #23225).
Compounds were diluted in a 5-fold gradient with 100% DMSO for a total of 9 concentrations: 2 W for each concentration was added to a 48-μl reaction buffer (20 mM Tris, pH 8.0, 0.5 mM EDTA) and mixed well as 4* compound (final concentrations: 2000, 400, 80, 16, 3.2, 0.64, 0.128, 0.0256, and 0 nM) for later use. A reaction buffer was used to prepare 4* MOLT-4 cell lysate at a final concentration of 20 ng/μl and 2*Ac-ANW-AMC at a final concentration of 100 µM. 5 μl of 4* compound was added to a 384-well plate (OptiPlate-384, purchased from PerkinElmer), added with 5 W of 4* cell lysate, centrifuged, and reacted in an incubator at 23° C. for 1 hour. 10 W of 2* Ac-ANW-AMC was added and the reaction was started by centrifugation at 23° C. in the dark for 2 hours. After completion of the reaction, the signal value (excitation wavelength 345 nm/emission wavelength 445 nm) was read on the CLARIO star^Plus (purchased from BMG LRBTECH). Enzyme activity was determined at 9 concentrations for each compound, and data were processed using the GraphPad Prism software to calculate the half inhibitory concentration of the compound on LMP7, i.e. the IC50 value.

For a further assay, the target named is T2, β5 (Homo sapiens, UniProt P28074).
T2 construct: using HEK-293 cell lysate as the enzyme source of D5; endogenous in cells; host or cells: HEK-293 (human embryonic kidney cells)
Nature of the assay: Enzymatic inhibitory activity on β5 (HEK-293 cell lysate, Ac-WLA-AMC substrate). Format: biochemical. The following applies: 1 hour pre-incubation.
From the text: β5 is a catalytic subunit of immunoproteasomes. In this experiment, an enzymatic detection platform was established using its hydrolytic enzyme activity and used for compound activity detection. Using Ac-WLA-AMC (Bonston Biochem, Cat #5-330) as a substrate for D5, the amount of fluorescent group AMC (7-amino-4-methylcoumarin) released after hydrolysis can reflect the enzymatic activity. […] We established an enzymatic detection method for compound inhibition on D5 using HEK-293 cell lysate as the enzyme source of D5 and detected the compound inhibitory activity (half inhibitory concentration, IC50). The enzymatic inhibitory activity of compounds against D5 was used as a measure index of compound selectivity.
as §1, with “HEK-293” for “MOLT-4”, “DMEM” for “RPMI-1640”, “performed” for “performed by”
Compounds were diluted in a 5-fold gradient with 100% DMSO for a total of 9 concentrations. 2 W for each concentration was added to a 48-μl reaction buffer (20 mM Tris, pH 8.0, 0.5 mM EDTA) and mixed well as 4* compound (final concentrations: 100000, 20000, 4000, 800, 160, 32, 6.4, 1.28, and 0 nM) for later use. A reaction buffer was used to prepare 4*HEK-293 cell lysate at a final concentration of 25 ng/μl and 2*Ac-WLA-AMC at a final concentration of 20 μM. 5 W of 4* compound was added to a 384-well plate (OptiPlate-384, purchased from PerkinElmer), added with 5 W of 4*HEK-293 cell lysate, centrifuged, and reacted in an incubator at 23° C. for 1 hour. 10 W of 2* Ac-WLA-AMC was added and the reaction was started by centrifugation at 23° C. in the dark for 2 hours. After completion of the reaction, the signal value (excitation wavelength 345 nm/emission wavelength 445 nm) was read on the CLARIO star^Plus (purchased from BMG LRBTECH). Enzyme activity was determined at 9 concentrations for each compound, and data were processed using the GraphPad Prism software to calculate the half inhibitory concentration of the compound on D5, i.e. the IC50 value.

On to `CC1(C)[C@@H]2C[C@H]3OB([C@H](Cc4coc5ccccc45)NC(=O)C(=O)Nc4ncc(F)s4)O[C@@]3(C)[C@H]1C2` [Ex. 33, (R)-(2-(benzofuran-3-yl)-1-(2-oxo-2-((5-fluorothiazol-2-yl)amino)acetamido)ethyl)boronic acid (1S,2S,3R,5S)-(+)-pinane-2,3-diol ester], for which the IC50 on LMP7 [1] stood at 9.5 nM; against LMP7 [2], 3.08 nM; against β5 it was 39 nM.
For `O=C(N[C@@H](Cc1coc2ccccc12)B(O)O)C(=O)N[C@@H]1C[C@H]2CC[C@@H]1O2` [Ex. 1, ((R)-1-(2-(((1S,2R,4R)-7-oxabicyclo[2.2.1]heptan-2-yl)amino)-2-oxoacetamido)-2-(benzofuran-3-yl)ethyl)boronic acid], in that order: 5.94 nM, 7.65 nM and 154 nM.
As for `O=C(Nc1cc(Cl)ccc1Cl)C(=O)N[C@@H](Cc1coc2ccccc12)B(O)O` [Ex. 24, ((R)-2-(benzofuran-3-yl)-1-(2-oxo-2-((2,5-dichlorophenyl)amino)acetamido)ethyl)boronic acid], the IC50 at LMP7 [1] is 3.92 nM; at LMP7 [2], 6.27 nM; at β5, 115 nM.
For `Cc1csc(NC(=O)C(=O)N[C@@H](Cc2coc3ccccc23)B(O)O)n1` [Ex. 31, (R)-(2-(benzofuran-3-yl)-1-(2-oxo-2-((4-methylthiazol-2-yl)amino)acetamido)ethyl)boronic acid], in that order: 11 nM, 2.91 nM and 72.5 nM.
For `COC(=O)C(=O)N[C@@H](Cc1coc2ccccc12)B1O[C@@H]2CC3C[C@@H](C3(C)C)[C@]2(C)O1` [Ex. 61, (R)-(2-(benzofuran-3-yl)-1-(2-oxo-2-methoxyacetamido)ethyl)boronic acid (1S,2S,3R,5S)-(+)-pinane-2,3-diol ester], in that order: 46.6 nM, 4.27 nM and 722 nM.
For `Cc1cnc(NC(=O)C(=O)N[C@@H](Cc2coc3ccccc23)B(O)O)cn1` [Ex. 46, (R)-(2-(benzofuran-3-yl)-1-(2-oxo-2-((5-methylpyrazin-2-yl)amino)acetamido)ethyl)boronic acid], in that order: 2.29 nM, 7.83 nM and 93.8 nM.
Consider `CC1(C)[C@@H]2C[C@H]3OB([C@H](Cc4coc5ccccc45)NC(=O)C(=O)Nc4ccc(F)cc4F)O[C@@]3(C)[C@H]1C2` [Ex. 54, (R)-(2-(benzofuran-3-yl)-1-(2-oxo-2-(2,4-difluorophenylamino)acetamido)ethyl)boronic acid (1S,2S,3R,5S)-(+)-pinane-2,3-diol ester], for which the IC50 came out at 5.33 nM at LMP7 [1], 0.89 nM against LMP7 [2] and 23.7 nM on β5.
For `O=C(Nc1cnccn1)C(=O)N[C@@H](Cc1coc2ccccc12)B1OC(=O)c2ccccc2O1` [Ex. 20, N-((1R)-2-(1-benzofuran-3-yl)-1-(4-oxo-2,4-dihydro-1,3,2-benzo[d][1,3,2]dioxaborinin-2-yl)ethyl)-N-(pyrazin-2-yl)oxalamide], in that order: 0.32 nM, 1.2 nM and 18.8 nM.
`O=C(N[C@@H](Cc1coc2ccccc12)B(O)O)C(=O)N1CC2COCC2C1` (stereo partly drawn) [Ex. 29, (R)-(2-(benzofuran-3-yl)-1-(2-oxo-2-(tetrahydro-1H-furo[3,4-c]pyrrol-5(3H)-yl)acetamido)ethyl)boronic acid]: the IC50 on LMP7 [1] was 15.9 nM; against LMP7 [2], 7.81 nM; at β5, 41.4 nM.
For `CC1(C)[C@@H]2C[C@H]3OB([C@H](Cc4coc5ccccc45)NC(=O)C(=O)Nc4ccccn4)O[C@@]3(C)[C@H]1C2` [Ex. 23, (R)-(2-(benzofuran-3-yl)-1-(2-oxo-2-(pyridin-2-ylamino)acetamido)ethyl) boronic acid (1S,2S,3R,5S)-(+)-pinane-2,3-diol ester], in that order: 1.65 nM, 3.81 nM and 126 nM.
The matching figures for `O=C(Nc1cncnc1)C(=O)N[C@@H](Cc1coc2ccccc12)B(O)O` [Ex. 48, (R)-(2-(benzofuran-3-yl)-1-(2-oxo-2-(pyrimidin-5-ylamino)acetamido)ethyl) boronic acid]: 11.1 nM, 4.58 nM and 22.5 nM.

Values taken from patent US20240425529A1, “BORIC ACID DERIVATIVE” (SHOUYAO HOLDINGS (BEIJING) CO., LTD., priority 2021, published 2024).
